Here are results for nine compounds from US20250223268A1, “4-Methylsulfonylbenzamide Compound, Preparation Method, Herbicidal Composition And Use” (Jiangsu Flag Chemical Industry Co., Ltd., priority 2022, published 2025).

In the first test the test system is Digitaria sanguinalis. Nature of the test: Greenhouse herbicidal activity assay, post-emergence. In kind it is in vivo. The note with it: Post-emergence test, rate 150 g a.i./hm^2; grade by fresh weight inhibition rate. In outline:
(§1)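 Weeds and crops grown in pots of nutrient soil in a growth chamber to the 3-6 leaf stage, then foliar-sprayed and air-dried. Fresh weight inhibition scored 14-21 days after treatment and graded A (≥80%) through E (<20%).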
For `CS(=O)(=O)c1ccc(C(=O)Nc2nnco2)c(Cl)c1[S+]([O-])CC(F)(F)F` (racemic) [Compound 3-324], the “Control efficacy grade, Digitaria sanguinalis” value was “A (Fresh weight inhibition rate≥80% to 100%)”.

As to `CS(=O)(=O)c1ccc(C(=O)Nc2nnco2)c(Cl)c1[S+]([O-])CC(F)F` (racemic) [Compound 3-329], the “Control efficacy grade, Digitaria sanguinalis” value is on record as “A (Fresh weight inhibition rate≥80% to 100%)”.

Take `C=CC[S+]([O-])c1c(S(C)(=O)=O)ccc(C(=O)Nc2nnco2)c1Cl` (racemic) [Compound 3-339]: the “Control efficacy grade, Digitaria sanguinalis” value was “A (Fresh weight inhibition rate≥80% to 100%)”.

Consider `CS(=O)(=O)c1ccc(C(=O)Nc2nnco2)c(Cl)c1[S+]([O-])CCCl` (racemic) [Compound 3-379], for which the “Control efficacy grade, Digitaria sanguinalis” value is reported as “A (Fresh weight inhibition rate≥80% to 100%)”.

For the compound `CCC[S+]([O-])c1c(S(C)(=O)=O)ccc(C(=O)Nc2nnc(CC)o2)c1Cl` (racemic) [Compound 3-384], the “Control efficacy grade, Digitaria sanguinalis” value is recorded as “A (Fresh weight inhibition rate≥80% to 100%)”.

In the case of `CCCC[S+]([O-])c1c(S(C)(=O)=O)ccc(C(=O)Nc2nnc(CC)o2)c1Cl` (racemic) [Compound 3-394], the “Control efficacy grade, Digitaria sanguinalis” value is recorded as “A (Fresh weight inhibition rate≥80% to 100%)”.

In the case of `CCc1nnc(NC(=O)c2ccc(S(C)(=O)=O)c([S+]([O-])CC(C)C)c2Cl)o1` (racemic) [Compound 3-410], the “Control efficacy grade, Digitaria sanguinalis” value is reported as “A (Fresh weight inhibition rate≥80% to 100%)”.

As to `CCc1nnc(NC(=O)c2ccc(S(C)(=O)=O)c([S+]([O-])CC3CC3)c2Cl)o1` (racemic) [Compound 3-415], the “Control efficacy grade, Digitaria sanguinalis” value was “A (Fresh weight inhibition rate≥80% to 100%)”.

As for `CCc1nnc(NC(=O)c2ccc(S(C)(=O)=O)c([S+]([O-])C3CC3)c2Cl)o1` (racemic) [Compound 3-420], the “Control efficacy grade, Digitaria sanguinalis” value is “A (Fresh weight inhibition rate≥80% to 100%)”.

A further test has as its system Echinochloa crusgalli. Described as above. In kind it is in vivo. Conditions: Post-emergence test, rate 150 g a.i./hm^2; grade by fresh weight inhibition rate. The method, boiled down:
as §1
For `CS(=O)(=O)c1ccc(C(=O)Nc2nnco2)c(Cl)c1[S+]([O-])CC(F)(F)F` (racemic) [Compound 3-324], the “Control efficacy grade, Echinochloa crusgalli” value is “A (Fresh weight inhibition rate≥80% to 100%)”.

Turning to `CS(=O)(=O)c1ccc(C(=O)Nc2nnco2)c(Cl)c1[S+]([O-])CC(F)F` (racemic) [Compound 3-329], the “Control efficacy grade, Echinochloa crusgalli” value was “A (Fresh weight inhibition rate≥80% to 100%)”.

Turning to `C=CC[S+]([O-])c1c(S(C)(=O)=O)ccc(C(=O)Nc2nnco2)c1Cl` (racemic) [Compound 3-339], the “Control efficacy grade, Echinochloa crusgalli” value is “A (Fresh weight inhibition rate≥80% to 100%)”.

On to `CS(=O)(=O)c1ccc(C(=O)Nc2nnco2)c(Cl)c1[S+]([O-])CCCl` (racemic) [Compound 3-379], for which the “Control efficacy grade, Echinochloa crusgalli” value was “A (Fresh weight inhibition rate≥80% to 100%)”.

As to `CCC[S+]([O-])c1c(S(C)(=O)=O)ccc(C(=O)Nc2nnc(CC)o2)c1Cl` (racemic) [Compound 3-384], the “Control efficacy grade, Echinochloa crusgalli” value is listed as “A (Fresh weight inhibition rate≥80% to 100%)”.

Turning to `CCCC[S+]([O-])c1c(S(C)(=O)=O)ccc(C(=O)Nc2nnc(CC)o2)c1Cl` (racemic) [Compound 3-394], the “Control efficacy grade, Echinochloa crusgalli” value is reported as “A (Fresh weight inhibition rate≥80% to 100%)”.

As to `CCc1nnc(NC(=O)c2ccc(S(C)(=O)=O)c([S+]([O-])CC(C)C)c2Cl)o1` (racemic) [Compound 3-410], the “Control efficacy grade, Echinochloa crusgalli” value is on record as “C (Fresh weight inhibition rate≥40% to <60%)”.

`CCc1nnc(NC(=O)c2ccc(S(C)(=O)=O)c([S+]([O-])CC3CC3)c2Cl)o1` (racemic) [Compound 3-415]: the “Control efficacy grade, Echinochloa crusgalli” value is “A (Fresh weight inhibition rate≥80% to 100%)”.

For the compound `CCc1nnc(NC(=O)c2ccc(S(C)(=O)=O)c([S+]([O-])C3CC3)c2Cl)o1` (racemic) [Compound 3-420], the “Control efficacy grade, Echinochloa crusgalli” value is on record as “A (Fresh weight inhibition rate≥80% to 100%)”.

The subject of the next test is Eclipta prostrata. Described as above. In kind it is in vivo. Conditions: Post-emergence test, rate 150 g a.i./hm^2; grade by fresh weight inhibition rate. The method, boiled down: as §1
With `CS(=O)(=O)c1ccc(C(=O)Nc2nnco2)c(Cl)c1[S+]([O-])CC(F)(F)F` (racemic) [Compound 3-324], the “Control efficacy grade, Eclipta prostrata” value is “A (Fresh weight inhibition rate≥80% to 100%)”.

With `CS(=O)(=O)c1ccc(C(=O)Nc2nnco2)c(Cl)c1[S+]([O-])CC(F)F` (racemic) [Compound 3-329], the “Control efficacy grade, Eclipta prostrata” value is given as “A (Fresh weight inhibition rate≥80% to 100%)”.

Regarding `C=CC[S+]([O-])c1c(S(C)(=O)=O)ccc(C(=O)Nc2nnco2)c1Cl` (racemic) [Compound 3-339], the “Control efficacy grade, Eclipta prostrata” value is given as “A (Fresh weight inhibition rate≥80% to 100%)”.

Consider `CS(=O)(=O)c1ccc(C(=O)Nc2nnco2)c(Cl)c1[S+]([O-])CCCl` (racemic) [Compound 3-379], for which the “Control efficacy grade, Eclipta prostrata” value is given as “A (Fresh weight inhibition rate≥80% to 100%)”.

For `CCC[S+]([O-])c1c(S(C)(=O)=O)ccc(C(=O)Nc2nnc(CC)o2)c1Cl` (racemic) [Compound 3-384], the “Control efficacy grade, Eclipta prostrata” value is recorded as “A (Fresh weight inhibition rate≥80% to 100%)”.

On to `CCCC[S+]([O-])c1c(S(C)(=O)=O)ccc(C(=O)Nc2nnc(CC)o2)c1Cl` (racemic) [Compound 3-394], for which the “Control efficacy grade, Eclipta prostrata” value is on record as “A (Fresh weight inhibition rate≥80% to 100%)”.

With `CCc1nnc(NC(=O)c2ccc(S(C)(=O)=O)c([S+]([O-])CC(C)C)c2Cl)o1` (racemic) [Compound 3-410], the “Control efficacy grade, Eclipta prostrata” value is recorded as “A (Fresh weight inhibition rate≥80% to 100%)”.

`CCc1nnc(NC(=O)c2ccc(S(C)(=O)=O)c([S+]([O-])CC3CC3)c2Cl)o1` (racemic) [Compound 3-415]: the “Control efficacy grade, Eclipta prostrata” value is “A (Fresh weight inhibition rate≥80% to 100%)”.

Take `CCc1nnc(NC(=O)c2ccc(S(C)(=O)=O)c([S+]([O-])C3CC3)c2Cl)o1` (racemic) [Compound 3-420]: the “Control efficacy grade, Eclipta prostrata” value is “A (Fresh weight inhibition rate≥80% to 100%)”.

The next test deals with Cyperus iria. Described as above. Conditions: Post-emergence test, rate 150 g a.i./hm^2; grade by fresh weight inhibition rate. In kind it is in vivo. The method, boiled down: as §1
`CS(=O)(=O)c1ccc(C(=O)Nc2nnco2)c(Cl)c1[S+]([O-])CC(F)(F)F` (racemic) [Compound 3-324]: the “Control efficacy grade, Cyperus iria” value was “A (Fresh weight inhibition rate≥80% to 100%)”.

`CS(=O)(=O)c1ccc(C(=O)Nc2nnco2)c(Cl)c1[S+]([O-])CC(F)F` (racemic) [Compound 3-329]: the “Control efficacy grade, Cyperus iria” value is “A (Fresh weight inhibition rate≥80% to 100%)”.

In the case of `C=CC[S+]([O-])c1c(S(C)(=O)=O)ccc(C(=O)Nc2nnco2)c1Cl` (racemic) [Compound 3-339], the “Control efficacy grade, Cyperus iria” value was “A (Fresh weight inhibition rate≥80% to 100%)”.

Consider `CS(=O)(=O)c1ccc(C(=O)Nc2nnco2)c(Cl)c1[S+]([O-])CCCl` (racemic) [Compound 3-379], for which the “Control efficacy grade, Cyperus iria” value is “A (Fresh weight inhibition rate≥80% to 100%)”.

On to `CCC[S+]([O-])c1c(S(C)(=O)=O)ccc(C(=O)Nc2nnc(CC)o2)c1Cl` (racemic) [Compound 3-384], for which the “Control efficacy grade, Cyperus iria” value is reported as “A (Fresh weight inhibition rate≥80% to 100%)”.

For `CCCC[S+]([O-])c1c(S(C)(=O)=O)ccc(C(=O)Nc2nnc(CC)o2)c1Cl` (racemic) [Compound 3-394], the “Control efficacy grade, Cyperus iria” value was “A (Fresh weight inhibition rate≥80% to 100%)”.

On to `CCc1nnc(NC(=O)c2ccc(S(C)(=O)=O)c([S+]([O-])CC(C)C)c2Cl)o1` (racemic) [Compound 3-410], for which the “Control efficacy grade, Cyperus iria” value is recorded as “A (Fresh weight inhibition rate≥80% to 100%)”.

As to `CCc1nnc(NC(=O)c2ccc(S(C)(=O)=O)c([S+]([O-])CC3CC3)c2Cl)o1` (racemic) [Compound 3-415], the “Control efficacy grade, Cyperus iria” value is given as “A (Fresh weight inhibition rate≥80% to 100%)”.

Regarding `CCc1nnc(NC(=O)c2ccc(S(C)(=O)=O)c([S+]([O-])C3CC3)c2Cl)o1` (racemic) [Compound 3-420], the “Control efficacy grade, Cyperus iria” value is listed as “A (Fresh weight inhibition rate≥80% to 100%)”.

Another test concerns Leptochloa chinensis. The description is as above. The note with it: Post-emergence test, rate 150 g a.i./hm^2; grade by fresh weight inhibition rate. The class given is in vivo. In outline: as §1
For `CS(=O)(=O)c1ccc(C(=O)Nc2nnco2)c(Cl)c1[S+]([O-])CC(F)(F)F` (racemic) [Compound 3-324], the “Control efficacy grade, Leptochloa chinensis” value is listed as “A (Fresh weight inhibition rate≥80% to 100%)”.

For `CS(=O)(=O)c1ccc(C(=O)Nc2nnco2)c(Cl)c1[S+]([O-])CC(F)F` (racemic) [Compound 3-329], the “Control efficacy grade, Leptochloa chinensis” value is recorded as “A (Fresh weight inhibition rate≥80% to 100%)”.

Regarding `C=CC[S+]([O-])c1c(S(C)(=O)=O)ccc(C(=O)Nc2nnco2)c1Cl` (racemic) [Compound 3-339], the “Control efficacy grade, Leptochloa chinensis” value was “A (Fresh weight inhibition rate≥80% to 100%)”.

As for `CS(=O)(=O)c1ccc(C(=O)Nc2nnco2)c(Cl)c1[S+]([O-])CCCl` (racemic) [Compound 3-379], the “Control efficacy grade, Leptochloa chinensis” value was “A (Fresh weight inhibition rate≥80% to 100%)”.

Turning to `CCC[S+]([O-])c1c(S(C)(=O)=O)ccc(C(=O)Nc2nnc(CC)o2)c1Cl` (racemic) [Compound 3-384], the “Control efficacy grade, Leptochloa chinensis” value is given as “A (Fresh weight inhibition rate≥80% to 100%)”.

`CCCC[S+]([O-])c1c(S(C)(=O)=O)ccc(C(=O)Nc2nnc(CC)o2)c1Cl` (racemic) [Compound 3-394]: the “Control efficacy grade, Leptochloa chinensis” value is “A (Fresh weight inhibition rate≥80% to 100%)”.

For `CCc1nnc(NC(=O)c2ccc(S(C)(=O)=O)c([S+]([O-])CC(C)C)c2Cl)o1` (racemic) [Compound 3-410], the “Control efficacy grade, Leptochloa chinensis” value is reported as “A (Fresh weight inhibition rate≥80% to 100%)”.

`CCc1nnc(NC(=O)c2ccc(S(C)(=O)=O)c([S+]([O-])CC3CC3)c2Cl)o1` (racemic) [Compound 3-415]: the “Control efficacy grade, Leptochloa chinensis” value was “A (Fresh weight inhibition rate≥80% to 100%)”.

`CCc1nnc(NC(=O)c2ccc(S(C)(=O)=O)c([S+]([O-])C3CC3)c2Cl)o1` (racemic) [Compound 3-420]: the “Control efficacy grade, Leptochloa chinensis” value was “A (Fresh weight inhibition rate≥80% to 100%)”.
